Measurements from ChEMBL document CHEMBL3044613, “Insecticidal and Neuroblocking Activities of Thiacloprid and Its Acyclic Analogues and Their Related Cyanoguanidine Derivatives” (J Pestic Sci, 2002).
Active and inactive are the calls of the source. No cut-off for these calls is given here.

Legend:
[1] = test system: Periplaneta americana; experiment: Insecticidal activity against Periplaneta americana (American cockroach) assessed as killing compound injected into abdomen of cockroach after 24 hr in presence of 50 ug piperonyl butoxide oxidative metabolism inhibitor and 50 ug propargyl propyl benzenephosphonate inhibitor of hydrolytic; type: functional
[2] = test system: Periplaneta americana; experiment: Insecticidal activity against Periplaneta americana (American cockroach) assessed as neuroblocking concentration; type: functional
[3] = test system: Periplaneta americana; experiment: Insecticidal activity against Periplaneta americana (American cockroach) assessed as killing compound injected into abdomen of cockroach after 24 hr; type: functional
[4] = Octanol-water partition coefficient, log P of the compound at 23 degC by shake flask method; type: physicochemical
[5] = test system: Periplaneta americana; experiment: Insecticidal activity against Periplaneta americana (American cockroach) assessed as killing compound injected into abdomen of cockroach after 24 hr in presence of 50 ug propargyl propyl benzenephosphonate inhibitor of hydrolytic metabolism of tetramethrin pyrethroid; type: functional
[6] = test system: Periplaneta americana; experiment: Insecticidal activity against Periplaneta americana (American cockroach) assessed as killing compound injected into abdomen of cockroach after 24 hr in presence of 50 ug piperonyl butoxide oxidative metabolism inhibitor; type: functional
[7] = test system: Periplaneta americana; experiment: Insecticidal activity against Periplaneta americana (American cockroach) assessed as increase in frequency of impulses in nerve preparation measured immediately after treatment at 10^-5 M by electrophysiological method; type: functional, organism-based

Compound `N#C/N=C(\NCc1ccccc1)NCc1ccc(Cl)nc1` has an MLD [1] of 66 nmol, an Activity [2] of 150 µM and an MLD [3] of over 66 nmol.

Compound `CCN/C(=N\C#N)N(C)Cc1ccc(Cl)nc1` has a logP [4] of 1.02, an MLD [1] of 40 nmol and an Activity [2] of over 160 µM. It also gave an MLD [3] of 26 nmol.

With `CN(Cc1ccc(Cl)nc1)/C(=N/C#N)NCc1ccccc1` the logP [4] was 1.32, the MLD [1] was 6.3 nmol and the Activity [2] was 150 µM. For the same compound, the MLD [5] was 8.1 nmol, the MLD [6] was 25 nmol and the MLD [3] was 81 nmol.

Work on `CS/C(=N\C#N)N(C)Cc1ccc(Cl)nc1` yielded a logP [4] of 1.4, an MLD [1] of 2.5 nmol and an Activity [2] of 6 µM. For the same compound, the MLD [5] was 6.3 nmol, the MLD [6] was 71 nmol and the MLD [3] was 160 nmol.

With `N#C/N=C1\SCCN1Cc1ccc(Cl)nc1` [THIACLOPRID] the logP [4] was 1.2, the MLD [1] was 0.21 nmol and the Activity [2] was 2.6 µM. For the same compound, the MLD [5] was 0.46 nmol, the MLD [6] was 5.9 nmol and the MLD [3] was 21 nmol.

`O=[N+]([O-])/N=C1\NCCN1Cc1ccc(Cl)nc1` [IMIDACLOPRID] gave a logP [4] of 0.6, an MLD [1] of 0.07 nmol and an Activity [2] of 2.3 µM. For the same compound, the MLD [5] was 0.19 nmol, the MLD [6] was 0.55 nmol and the MLD [3] was 1.1 nmol.

`CCN/C(=N\C#N)NCc1ccc(Cl)nc1` gave a logP [4] of 0.86, an MLD [1] of over 170 nmol and an Activity [2] of over 170 µM. It also gave an MLD [3] of over 170 nmol.

For `CN(Cc1ccc(Cl)nc1)/C(N)=N/C#N`, the logP [4] was 0.71, the MLD [1] was 1.2 nmol and the Activity [2] was 9.6 µM. The MLD [5] was 0.71 nmol, the MLD [6] was 14 nmol and the MLD [3] was 22 nmol.

`CN/C(=N\C#N)N(C)Cc1ccc(Cl)nc1` gave a logP [4] of 0.78, an MLD [1] of 54 nmol and an Activity [2] of over 170 µM. For the same compound, the MLD [3] was 68 nmol.

For `CN(C)/C(=N\C#N)NCc1ccc(Cl)nc1`, the logP [4] was 0.66, the MLD [1] was 140 nmol and the Activity [2] was over 170 µM. For the same compound, the MLD [3] was over 170 nmol.

With `CS/C(=N\C#N)NCc1ccc(Cl)nc1` the logP [4] was 1.27, the MLD [1] was 0.66 nmol and the Activity [2] was 1.7 µM. It also gave an MLD [5] of 0.83 nmol, an MLD [6] of 21 nmol and an MLD [3] of over 83 nmol.

With `CN/C(=N\C#N)NCc1ccc(Cl)nc1` the Activity [7] was “Active”, the logP [4] was 0.84 and the MLD [1] was 8.9 nmol. It also gave an Activity [2] of 110 µM, an MLD [5] of 18 nmol and an MLD [6] of 180 nmol. It also gave an MLD [3] of over 180 nmol.

With `CN(C)/C(=N\C#N)N(C)Cc1ccc(Cl)nc1` the logP [4] was 0.66, the MLD [1] was 20 nmol and the Activity [2] was over 400 µM. For the same compound, the MLD [5] was 32 nmol, the MLD [6] was 200 nmol and the MLD [3] was 320 nmol.
